Strand notation (5' to 3'): a small letter for the sugar, then the base; units joined by * are phosphorothioate-linked, units joined directly phosphodiester-linked; [ ] holds rarer units or linkages, { } end groups; capitals alone tell only the bases. e = 2'-O-(2-methoxyethyl) (MOE); [5mC] = 5-methylcytosine; d = 2'-deoxy (DNA)
Test system: human LIM domain kinase 1 mRNA
Assay: Antisense inhibition of human LIM domain kinase 1 mRNA levels, quantitative real-time PCR, A549 cells (screen)
Assay type: cell-based
Conditions: quantitative real-time PCR, averages from two experiments, screening concentration not given (50 nM to 300 nM used herein)
Protocol: When cells reached 70% confluency, they were treated with oligonucleotide. […] Cells were harvested 16-24 hours after oligonucleotide treatment.
Vacuum was applied for 1 minute.
PCR reagents were obtained from Invitrogen Corporation, (Carlsbad, Calif.).
Total RNA is quantified using RiboGreenTM RNA quantification reagent from Molecular Probes.
Probes and primers to human LIM domain kinase 1 were designed to hybridize to a human LIM domain kinase 1 sequence, using published sequence information (GenBank accession number D26309.1, incorporated herein as SEQ ID NO:4). For human LIM domain kinase 1 the PCR primers were: forward primer: […] (SEQ ID NO: 5) reverse primer: […] (SEQ ID NO: 6) and the PCR probe was: FAM-[…]-TAMRA (SEQ ID NO: 7) where FAM is the fluorescent dye and TAMRA is the quencher dye.
All cytidine residues are 5-methylcytidines. […] Data are averages from two experiments in which A549 cells were treated with the oligonucleotides of the present invention. […] If present, “N.D.” indicates “no data”.

206161 (eA*eA*e[5mC]*e[5mC]*eT*d[5mC]*dA*dT*dG*d[5mC]*dA*d[5mC]*dT*d[5mC]*dG*eA*e[5mC]*eG*eG*eG; antisense) [compound 206161]
% INHIB (inhibition of human LIM domain kinase 1 mRNA levels): 82%

206162 (e[5mC]*eT*eG*e[5mC]*eT*dG*d[5mC]*dA*dG*d[5mC]*d[5mC]*dG*dT*dA*dT*eG*eA*eA*eA*eA; antisense) [compound 206162]
% INHIB (inhibition of human LIM domain kinase 1 mRNA levels): 74%

206163 (eG*eT*e[5mC]*eA*eA*d[5mC]*d[5mC]*dT*d[5mC]*dA*dT*dG*d[5mC]*dA*d[5mC]*eT*e[5mC]*eG*eA*e[5mC]; antisense) [compound 206163]
% INHIB (inhibition of human LIM domain kinase 1 mRNA levels): 79%

206164 (e[5mC]*eA*eG*eG*eT*dG*d[5mC]*dA*dA*d[5mC]*dA*dA*dA*dG*dT*eA*eG*e[5mC]*eG*eT; antisense) [compound 206164]
% INHIB (inhibition of human LIM domain kinase 1 mRNA levels): 75%

206165 (e[5mC]*e[5mC]*e[5mC]*eT*e[5mC]*d[5mC]*dA*dG*dG*dT*dG*d[5mC]*dA*dA*d[5mC]*eA*eA*eA*eG*eT) [compound 206165]
% INHIB (inhibition of human LIM domain kinase 1 mRNA levels): 22%

206166 (eT*eT*e[5mC]*eT*eT*d[5mC]*d[5mC]*d[5mC]*dT*d[5mC]*d[5mC]*dA*dG*dG*dT*eG*e[5mC]*eA*eA*e[5mC]; antisense) [compound 206166]
% INHIB (inhibition of human LIM domain kinase 1 mRNA levels): 70%

206167 (eA*eT*eA*e[5mC]*eG*dT*dT*d[5mC]*dT*dT*d[5mC]*d[5mC]*d[5mC]*dT*d[5mC]*e[5mC]*eA*eG*eG*eT; antisense) [compound 206167]
% INHIB (inhibition of human LIM domain kinase 1 mRNA levels): 85%

206168 (eT*e[5mC]*eT*e[5mC]*e[5mC]*d[5mC]*dA*dT*dA*d[5mC]*dG*dT*dT*d[5mC]*dT*eT*e[5mC]*e[5mC]*e[5mC]*eT; antisense) [compound 206168]
% INHIB (inhibition of human LIM domain kinase 1 mRNA levels): 36%

206169 (e[5mC]*eT*eT*e[5mC]*e[5mC]*dT*d[5mC]*dT*d[5mC]*d[5mC]*d[5mC]*dA*dT*dA*d[5mC]*eG*eT*eT*e[5mC]*eT; antisense) [compound 206169]
% INHIB (inhibition of human LIM domain kinase 1 mRNA levels): 67%

206170 (eG*e[5mC]*eA*eA*e[5mC]*dT*d[5mC]*dG*d[5mC]*dT*dT*d[5mC]*d[5mC]*dT*dT*e[5mC]*e[5mC]*eT*e[5mC]*eT; antisense) [compound 206170]
% INHIB (inhibition of human LIM domain kinase 1 mRNA levels): 43%

206171 (eA*eG*eG*eG*e[5mC]*d[5mC]*dT*dG*dG*dA*dG*dG*dT*dA*d[5mC]*eT*eG*eG*e[5mC]*e[5mC]; antisense) [compound 206171]
% INHIB (inhibition of human LIM domain kinase 1 mRNA levels): 83%

206172 (eT*e[5mC]*e[5mC]*eT*eT*d[5mC]*dT*dT*dG*d[5mC]*dA*dG*dA*dA*dG*eA*eG*e[5mC]*eT*eG; antisense) [compound 206172]
% INHIB (inhibition of human LIM domain kinase 1 mRNA levels): 76%

206173 (eA*eG*eT*eA*eG*dT*d[5mC]*d[5mC]*dT*dT*d[5mC]*dT*dT*dG*d[5mC]*eA*eG*eA*eA*eG; antisense) [compound 206173]
% INHIB (inhibition of human LIM domain kinase 1 mRNA levels): 71%

206174 (antisense eG*eG*e[5mC]*e[5mC]*e[5mC]*dA*dG*dT*dA*dG*dT*d[5mC]*d[5mC]*dT*dT*e[5mC]*eT*eT*eG*e[5mC]) [compound 206174]
% INHIB (inhibition of human LIM domain kinase 1 mRNA levels): 87%

206175 (antisense eT*eA*eG*e[5mC]*eG*dG*dG*d[5mC]*d[5mC]*d[5mC]*dA*dG*dT*dA*dG*eT*e[5mC]*e[5mC]*eT*eT) [compound 206175]
% INHIB (inhibition of human LIM domain kinase 1 mRNA levels): 83%

206176 (antisense e[5mC]*eG*e[5mC]*e[5mC]*eA*dT*dA*dG*d[5mC]*dG*dG*dG*d[5mC]*d[5mC]*d[5mC]*eA*eG*eT*eA*eG) [compound 206176]
% INHIB (inhibition of human LIM domain kinase 1 mRNA levels): 87%

206177 (antisense eA*eG*e[5mC]*eT*eT*dG*dG*dA*dG*dT*dG*d[5mC]*dT*d[5mC]*d[5mC]*eA*e[5mC]*e[5mC]*eA*eG) [compound 206177]
% INHIB (inhibition of human LIM domain kinase 1 mRNA levels): 86%

206178 (antisense eA*eG*eT*eA*e[5mC]*dA*dG*d[5mC]*dT*dT*dG*dG*dA*dG*dT*eG*e[5mC]*eT*e[5mC]*e[5mC]) [compound 206178]
% INHIB (inhibition of human LIM domain kinase 1 mRNA levels): 69%

206179 (antisense eG*e[5mC]*eA*eG*eT*dG*d[5mC]*d[5mC]*d[5mC]*dG*d[5mC]*dA*dG*dT*dA*e[5mC]*eA*eG*e[5mC]*eT) [compound 206179]
% INHIB (inhibition of human LIM domain kinase 1 mRNA levels): 75%

206180 (antisense eA*e[5mC]*eA*eT*e[5mC]*dT*dG*dG*dG*d[5mC]*dT*d[5mC]*dA*dT*dG*e[5mC]*eA*eG*e[5mC]*e[5mC]) [compound 206180]
% INHIB (inhibition of human LIM domain kinase 1 mRNA levels): 77%

206181 (antisense eT*e[5mC]*eT*eT*e[5mC]*dA*d[5mC]*dA*dT*d[5mC]*dT*dG*dG*dG*d[5mC]*eT*e[5mC]*eA*eT*eG) [compound 206181]
% INHIB (inhibition of human LIM domain kinase 1 mRNA levels): 54%

206182 (antisense eG*eG*eA*eA*eT*dT*d[5mC]*dT*dT*d[5mC]*dA*d[5mC]*dA*dT*d[5mC]*eT*eG*eG*eG*e[5mC]) [compound 206182]
% INHIB (inhibition of human LIM domain kinase 1 mRNA levels): 86%

206183 (antisense eT*eG*eG*eA*eT*dG*dG*dA*dA*dT*dT*d[5mC]*dT*dT*d[5mC]*eA*e[5mC]*eA*eT*e[5mC]) [compound 206183]
% INHIB (inhibition of human LIM domain kinase 1 mRNA levels): 79%

206184 (antisense eA*eT*eT*eT*e[5mC]*d[5mC]*dA*dA*dG*dA*dT*d[5mC]*d[5mC]*dG*dG*eT*e[5mC]*eT*e[5mC]*e[5mC]) [compound 206184]
% INHIB (inhibition of human LIM domain kinase 1 mRNA levels): 74%

206185 (antisense eG*e[5mC]*e[5mC]*eA*eT*dT*dG*dA*dT*dT*dT*d[5mC]*d[5mC]*dA*dA*eG*eA*eT*e[5mC]*e[5mC]) [compound 206185]
% INHIB (inhibition of human LIM domain kinase 1 mRNA levels): 86%

206186 (antisense eG*eG*e[5mC]*eG*eT*dG*d[5mC]*d[5mC]*dA*dT*dT*dG*dA*dT*dT*eT*e[5mC]*e[5mC]*eA*eA) [compound 206186]
% INHIB (inhibition of human LIM domain kinase 1 mRNA levels): 72%

206187 (antisense eT*e[5mC]*eA*eG*e[5mC]*dT*dG*dG*dA*dG*d[5mC]*dA*dG*dG*d[5mC]*eG*eG*e[5mC]*eT*eG) [compound 206187]
% INHIB (inhibition of human LIM domain kinase 1 mRNA levels): 60%

206188 (antisense eT*e[5mC]*eG*eA*eG*dG*dG*dT*d[5mC]*dA*dG*d[5mC]*dT*dG*dG*eA*eG*e[5mC]*eA*eG) [compound 206188]
% INHIB (inhibition of human LIM domain kinase 1 mRNA levels): 71%

206189 (antisense eG*eT*eT*eT*e[5mC]*dT*dG*d[5mC]*d[5mC]*dG*dG*dG*d[5mC]*dA*dG*eA*eG*e[5mC]*eT*eG) [compound 206189]
% INHIB (inhibition of human LIM domain kinase 1 mRNA levels): 81%

206190 (antisense eG*eA*e[5mC]*eA*eG*dG*dT*dT*dT*d[5mC]*dT*dG*d[5mC]*d[5mC]*dG*eG*eG*e[5mC]*eA*eG) [compound 206190]
% INHIB (inhibition of human LIM domain kinase 1 mRNA levels): 88%

206191 (antisense e[5mC]*eT*e[5mC]*eA*eA*dG*dA*d[5mC]*dA*dG*dG*dT*dT*dT*d[5mC]*eT*eG*e[5mC]*e[5mC]*eG) [compound 206191]
% INHIB (inhibition of human LIM domain kinase 1 mRNA levels): 62%

206192 (antisense eA*eG*e[5mC]*eT*e[5mC]*d[5mC]*dT*d[5mC]*dA*dA*dG*dA*d[5mC]*dA*dG*eG*eT*eT*eT*e[5mC]) [compound 206192]
% INHIB (inhibition of human LIM domain kinase 1 mRNA levels): 54%
